The compounds below were run against T1, USP28 (His-tagged USP28-FL-mammalian) (Homo sapiens, UniProt Q96RU2) (assay: Ubiquitin-Rhodamine 110 Assay for USP28 Activity, Example A-1(a)). Conditions: Ub-Rh110 assay, Example A-1(a); read-out: USP28 A-1(a) IC50 range.
T1 construct: Expression of USP28 (1-1077)-TEV-6*His (pTT5 vector); made in house; host or cells: Expi293f cells (pTT5 vector)
T1 sequence (Q96RU2 1-1077): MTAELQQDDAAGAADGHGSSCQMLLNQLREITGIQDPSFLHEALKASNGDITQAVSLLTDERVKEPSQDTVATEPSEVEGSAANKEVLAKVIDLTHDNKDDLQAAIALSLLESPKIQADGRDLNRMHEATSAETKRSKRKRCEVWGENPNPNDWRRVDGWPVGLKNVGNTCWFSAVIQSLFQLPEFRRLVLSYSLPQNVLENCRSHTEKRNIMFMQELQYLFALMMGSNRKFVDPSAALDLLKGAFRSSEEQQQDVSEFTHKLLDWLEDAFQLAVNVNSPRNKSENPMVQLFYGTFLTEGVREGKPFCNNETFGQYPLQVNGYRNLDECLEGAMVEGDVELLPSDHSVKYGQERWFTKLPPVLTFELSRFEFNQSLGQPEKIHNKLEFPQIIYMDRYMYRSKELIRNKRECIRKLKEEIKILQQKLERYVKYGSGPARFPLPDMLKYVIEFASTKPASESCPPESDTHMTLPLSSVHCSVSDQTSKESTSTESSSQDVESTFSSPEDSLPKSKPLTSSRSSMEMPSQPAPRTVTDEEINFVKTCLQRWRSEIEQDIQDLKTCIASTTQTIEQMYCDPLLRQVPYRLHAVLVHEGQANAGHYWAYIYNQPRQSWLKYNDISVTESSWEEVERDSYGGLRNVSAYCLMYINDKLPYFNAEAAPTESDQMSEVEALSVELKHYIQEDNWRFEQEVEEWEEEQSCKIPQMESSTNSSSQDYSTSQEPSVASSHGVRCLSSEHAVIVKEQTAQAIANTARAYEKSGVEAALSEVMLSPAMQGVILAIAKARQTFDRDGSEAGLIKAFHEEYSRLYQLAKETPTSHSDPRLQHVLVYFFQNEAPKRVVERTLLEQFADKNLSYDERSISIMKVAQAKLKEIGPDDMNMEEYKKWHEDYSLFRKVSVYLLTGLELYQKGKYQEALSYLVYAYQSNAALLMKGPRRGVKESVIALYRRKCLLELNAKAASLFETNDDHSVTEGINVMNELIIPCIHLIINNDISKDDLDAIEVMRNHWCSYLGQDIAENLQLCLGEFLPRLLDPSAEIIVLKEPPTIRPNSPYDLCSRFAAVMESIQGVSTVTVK
Assay type: biochemical
In short: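 Full-length His-tagged human USP28 (1-1077, Expi293f-expressed), […], with 25 nM Ub-Rh110 (<<Km) in pH 8.0 Tris buffer with BME, BGG, Triton X-100. 10-point dilutions (25 μM-1.3 nM), 45 min at room temperature, citric acid stop, fluorescence 485/535 nm; IC50 by 4-parameter fit.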
Work on Cc1nc2sc(C(=O)N[C@@H]3COc4cc(N5CCNCC5)ccc4C3)c(N)c2cc1F (single isomer, unassigned) [Example 1-16] yielded an IC50 of 200 to 2000 nM.
For Cc1ccc2c(N)c(C(=O)N[C@@H]3COc4cc(N5CC6CC(C5)N6)cc(F)c4C3)sc2n1 (single isomer, unassigned) [Example 1-41], the IC50 was 1 to 50 nM.
In the case of Cc1ccc2c(N)c(C(=O)N[C@H]3COc4cc(N5CCNCC5)c(F)cc4C3)sc2n1 [Example 1-35, (R)-3-amino-N-(6-fluoro-7-(piperazin-1-yl)chroman-3-yl)-6-methylthieno[2,3-b]pyridine-2-carboxamide], the IC50 is reported as 1 to 50 nM.
Compound Cc1nc2sc(C(=O)N[C@@H]3COc4cc(N5CC6CCC(C5)N6)cc(F)c4C3)c(N)c2s1 (single isomer, unassigned) [Example 1-40] has an IC50 of 200 to 2000 nM.
Compound Cc1cnc2c(N)c(C(=O)N[C@H]3COc4cc(N5CC6CNCC(C5)O6)ccc4C3)sc2n1 [Example 2-13, N-((3R)-7-(9-oxa-3,7-diazabicyclo[3.3.1]nonan-3-yl)chroman-3-yl)-7-amino-3-methylthieno[2,3-b]pyrazine-6-carboxamide] has an IC50 of 1 to 50 nM.
Cc1ccc2c(N)c(C(=O)N[C@H]3COc4cc(N5CC6CCC(C5)N6)ccc4C3)sc2n1 (single isomer, unassigned) [Example 1-3] showed an IC50 of 1 to 50 nM.
Compound Cc1ccc2c(N)c(C(=O)N[C@H]3COc4cc(N5CCNCC56COC6)ccc4C3)sc2n1 [Example 2-10] has an IC50 of 1 to 50 nM.
Compound Cc1nc2sc(C(=O)N[C@H]3COc4cc(N5CC6CCC(C5)N6)cc(F)c4C3)c(N)c2s1 (single isomer, unassigned) [Example 1-39] has an IC50 of 1 to 50 nM.
Cc1ccc2c(N)c(C(=O)N[C@H]3COc4cc(N5CCNC[C@H]5C)ccc4C3)sc2n1 [Example 2-5, 3-amino-6-methyl-N-((R)-7-((R)-2-methylpiperazin-1-yl)chroman-3-yl)thieno[2,3-b]pyridine-2-carboxamide] was tested, and the IC50 was 1 to 50 nM.
In the case of Cc1nc2sc(C(=O)N[C@H]3COc4cc(N5CC6CCCC(C5)N6)ccc4C3)c(N)c2s1 [Example 2-27], the IC50 is reported as 1 to 50 nM.
Cc1cc(C(F)(F)F)c2c(N)c(C(=O)N[C@H]3COc4cc(N5CC6CNCC(C5)O6)ccc4C3)sc2n1 [Example 2-23, N-((3R)-7-(9-oxa-3,7-diazabicyclo[3.3.1]nonan-3-yl)chroman-3-yl)-3-amino-6-methyl-4-(trifluoromethyl)thieno[2,3-b]pyridine-2-carboxamide] was tested, and the IC50 was 1 to 50 nM.
Cc1ccc2c(N)c(C(=O)N[C@H]3COc4cc(N5CCCC56CNC6)ccc4C3)sc2n1 [Example 2-7, (R)-N-(7-(2,5-diazaspiro[3.4]octan-5-yl)chroman-3-yl)-3-amino-6-methylthieno[2,3-b]pyridine-2-carboxamide] showed an IC50 of 1 to 50 nM.
Cc1nc2sc(C(=O)N[C@@H]3COc4cc(N5CCNCC5)cc(F)c4C3)c(N)c2s1 (single isomer, unassigned) [Example 1-38] gave an IC50 of 1 to 50 nM.
For Nc1c(C(=O)N[C@H]2COc3cc(N4CC5CC(C4)N5)ccc3C2)sc2nc(F)ccc12 [Example 2-14, N-((3R)-7-(3,6-diazabicyclo[3.1.1]heptan-3-yl)chroman-3-yl)-3-amino-6-fluorothieno[2,3-b]pyridine-2-carboxamide], the IC50 was 1 to 50 nM.
Work on Cc1cnc2c(N)c(C(=O)N[C@H]3COc4cc(N5CC6CC(C5)N6)ccc4C3)sc2n1 [Example 2-11, N-((3R)-7-(3,6-diazabicyclo[3.1.1]heptan-3-yl)chroman-3-yl)-7-amino-3-methylthieno[2,3-b]pyrazine-6-carboxamide] yielded an IC50 of 1 to 50 nM.
Compound Cc1cc(C)c2c(N)c(C(=O)N[C@H]3COc4cc(N5CCNCC5)c(C#N)c(F)c4C3)sc2n1 [Example 2-32, (R)-3-amino-N-(6-cyano-5-fluoro-7-(piperazin-1-yl)chroman-3-yl)-4,6-dimethylthieno[2,3-b]pyridine-2-carboxamide] has an IC50 of 1 to 50 nM.
Compound Cc1ccc2c(N)c(C(=O)N[C@@H]3COc4cc(N5CCNCC5)c(OC(F)(F)F)cc4C3)sc2n1 (single isomer, unassigned) [Example 1-32] has an IC50 of 50 to 200 nM.
With Cc1cc(C(F)(F)F)c2c(N)c(C(=O)N[C@H]3COc4cc(N5CC6CC(C5)N6)ccc4C3)sc2n1 [Example 2-21] the IC50 was 1 to 50 nM.
Cc1nc2sc(C(=O)N[C@H]3COc4cc(N5CC6CNCC(C5)C6(F)F)ccc4C3)c(N)c2s1 [Example 2-28, 6-amino-N-((3R)-7-(9,9-difluoro-3,7-diazabicyclo[3.3.1]nonan-3-yl)chroman-3-yl)-2-methylthieno[2,3-d]thiazole-5-carboxamide] was tested, and the IC50 was 1 to 50 nM.
For Cc1ccc2c(N)c(C(=O)N[C@H]3COc4cc(N5CCC[C@@](N)(C(F)(F)F)C5)ccc4C3)sc2n1 (single isomer, unassigned) [Example 3-3], the IC50 was 1 to 50 nM.
Compound [2H]C([2H])([2H])O[C@H]1CN(c2ccc3c(c2)OC[C@H](NC(=O)c2sc4nc(C)ccc4c2N)C3)C[C@@H]1N [Example 2-38, 3-amino-N-((R)-7-((3S,4S)-3-amino-4-(methoxy-d3)pyrrolidin-1-yl)chroman-3-yl)-6-methylthieno[2,3-b]pyridine-2-carboxamide] has an IC50 of 50 to 200 nM.
Work on Cc1ccc2c(N)c(C(=O)N[C@@H]3COc4cc(N5CCN[C@H](C)[C@H]5C)ccc4C3)sc2n1 (single isomer, unassigned) [Example 1-12] yielded an IC50 of 1 to 50 nM.
For Cc1ccc2c(N)c(C(=O)N[C@H]3COc4cc(N5CCN[C@H](C)[C@@H]5C)ccc4C3)sc2n1 (single isomer, unassigned) [Example 1-9], the IC50 was 1 to 50 nM.
For Cc1cnc2c(N)c(C(=O)N[C@@H]3CCc4cc(N5CCNCC5)c(C)cc4C3)sc2n1 (single isomer, unassigned) [Example 2-35], the IC50 was > 2000 nM.
O=C(N[C@H]1COc2cc(N3CC4CCC(C3)N4)ccc2C1)c1cnc2c(c1)C1(CCN2)CC1 [Example 2-24, N-((3R)-7-(3,8-diazabicyclo[3.2.1]octan-3-yl)chroman-3-yl)-2′,3′-dihydro-1′H-spiro[cyclopropane-1,4′-[1,8]naphthyridine]-6′-carboxamide] showed an IC50 of 50 to 200 nM.
For Cc1nc2sc(C(=O)N[C@H]3COc4cc(N5CCNCC5)cc(F)c4C3)c(N)c2s1 (single isomer, unassigned) [Example 1-37], the IC50 was > 2000 nM.
Work on Cc1ccc2c(N)c(C(=O)N[C@H]3COc4cc(N5CC6CNCC(C5)C6(F)F)c(C#N)cc4C3)sc2n1 [Example 2-33, 3-amino-N-((3R)-6-cyano-7-(9,9-difluoro-3,7-diazabicyclo[3.3.1]nonan-3-yl)chroman-3-yl)-6-methylthieno[2,3-b]pyridine-2-carboxamide] yielded an IC50 of 1 to 50 nM.
Work on Cc1cnc2c(N)c(C(=O)N[C@@H]3CCc4c(ccc(N5CCNCC5)c4C)C3)sc2n1 (single isomer, unassigned) [Example 2-37] yielded an IC50 of 1 to 50 nM.
In the case of Cc1ccc2c(N)c(C(=O)N[C@H]3COc4cc(N5CCNC[C@@H]5C)ccc4C3)sc2n1 [Example 2-4, 3-amino-6-methyl-N-((R)-7-((S)-2-methylpiperazin-1-yl)chroman-3-yl)thieno[2,3-b]pyridine-2-carboxamide], the IC50 is reported as 1 to 50 nM.
Compound CO[C@H]1CN(c2ccc3c(c2)OC[C@H](NC(=O)c2sc4nc(C)ccc4c2N)C3)C[C@@H]1N (single isomer, unassigned) [Example 3-1] has an IC50 of 1 to 50 nM.
Cc1ccc2c(N)c(C(=O)N[C@@H]3COc4cc(N5CCNCC5)ccc4C3)sc2n1 (single isomer, unassigned) [Example 1-2] gave an IC50 of 200 to 2000 nM.

— patent publication US11524966B1 (Valo Early Discovery, Inc., priority 2017, dated 2022)
